Test results: patent US11850273B2, “Chemical reprogramming of human glial cells into neurons for brain and spinal cord repair” (The Penn State Research Foundation, priority 2014, dated 2023)

Tested on: human astrocyte-converted neurons
Assay: Patch clamp whole-cell recordings of human astrocyte-converted neurons

Substance: DNQX
- effect on spontaneous burst activities: abolished
